Assay results taken from ChEMBL document CHEMBL4834420, “Projected Dose Optimization of Amino- and Hydroxypyrrolidine Purine PI3Kδ Immunomodulators” (J Med Chem, 2021).
pIC50: −log10 of the molar value.

What was measured:
[1] = target: PI3-kinase p110-delta/p85-alpha (Homo sapiens, UniProt O00329); experiment: Inhibition of N-terminal His6-tagged recombinant full length human p110delta/untagged recombinant full length human p85alpha expressed in baculovirus infected Sf21 insect cells using PIP2 as substrate preincubated for 15 mins followed by substrate addition and measured after 1 hr by HTRF assay
[2] = Inhibition of adenosine transporter in human HeLa cells assessed as reduction in [3H]adenosine uptake preincubated for 30 mins followed by [3H]adenosine addition and measured after 60 mins; assay type: cell-based
[3] = Lipophilicity, log D of the compound by HPLC analysis; assay type: physicochemical
[4] = Volume of distribution in Wistar Han rat; assay type: ADME; conditions: in vivo
[5] = Unbound volume of distribution in Wistar Han rat; assay type: ADME; conditions: in vivo
[6] = Half-life in Wistar Han rat; assay type: ADME; conditions: in vivo
[7] = Plasma clearance in Beagle dog at 0.05 mg/kg; assay type: ADME, organism-based, Canis lupus familiaris
[8] = Intrinsic clearance in Beagle dog at 0.05 mg/kg; assay type: ADME, organism-based, Canis lupus familiaris; conditions: in vivo
[9] = Volume of distribution in Beagle dog; assay type: ADME, Canis lupus familiaris; conditions: in vivo
[10] = Unbound volume of distribution in Beagle dog; assay type: ADME, Canis lupus familiaris; conditions: in vivo
[11] = Half-life in Beagle dog; assay type: ADME, Canis lupus familiaris; conditions: in vivo
[12] = Plasma clearance in Wistar Han rat at 0.05 mg/kg, iv or 1 mg/kg, po; assay type: ADME, organism-based
[13] = Intrinsic clearance in Wistar Han rat at 0.05 mg/kg, iv or 1 mg/kg, po; assay type: ADME, organism-based; conditions: in vivo
[14] = target: T1, Phosphatidylinositol 4,5-bisphosphate 3-kinase catalytic subunit delta isoform (Homo sapiens, UniProt O00329); experiment: Inhibition of PI3Kdelta in human Ramos cells assessed as reduction in anti-IgM-antibody-induced phosphorylation of AKT at Ser473 residue preincubated for 20 mins followed by anti-IgM antibody stimulation and measured after 30 mins by alphascreen assay; assay type: cell-based
T1 sequence (O00329 whole entry): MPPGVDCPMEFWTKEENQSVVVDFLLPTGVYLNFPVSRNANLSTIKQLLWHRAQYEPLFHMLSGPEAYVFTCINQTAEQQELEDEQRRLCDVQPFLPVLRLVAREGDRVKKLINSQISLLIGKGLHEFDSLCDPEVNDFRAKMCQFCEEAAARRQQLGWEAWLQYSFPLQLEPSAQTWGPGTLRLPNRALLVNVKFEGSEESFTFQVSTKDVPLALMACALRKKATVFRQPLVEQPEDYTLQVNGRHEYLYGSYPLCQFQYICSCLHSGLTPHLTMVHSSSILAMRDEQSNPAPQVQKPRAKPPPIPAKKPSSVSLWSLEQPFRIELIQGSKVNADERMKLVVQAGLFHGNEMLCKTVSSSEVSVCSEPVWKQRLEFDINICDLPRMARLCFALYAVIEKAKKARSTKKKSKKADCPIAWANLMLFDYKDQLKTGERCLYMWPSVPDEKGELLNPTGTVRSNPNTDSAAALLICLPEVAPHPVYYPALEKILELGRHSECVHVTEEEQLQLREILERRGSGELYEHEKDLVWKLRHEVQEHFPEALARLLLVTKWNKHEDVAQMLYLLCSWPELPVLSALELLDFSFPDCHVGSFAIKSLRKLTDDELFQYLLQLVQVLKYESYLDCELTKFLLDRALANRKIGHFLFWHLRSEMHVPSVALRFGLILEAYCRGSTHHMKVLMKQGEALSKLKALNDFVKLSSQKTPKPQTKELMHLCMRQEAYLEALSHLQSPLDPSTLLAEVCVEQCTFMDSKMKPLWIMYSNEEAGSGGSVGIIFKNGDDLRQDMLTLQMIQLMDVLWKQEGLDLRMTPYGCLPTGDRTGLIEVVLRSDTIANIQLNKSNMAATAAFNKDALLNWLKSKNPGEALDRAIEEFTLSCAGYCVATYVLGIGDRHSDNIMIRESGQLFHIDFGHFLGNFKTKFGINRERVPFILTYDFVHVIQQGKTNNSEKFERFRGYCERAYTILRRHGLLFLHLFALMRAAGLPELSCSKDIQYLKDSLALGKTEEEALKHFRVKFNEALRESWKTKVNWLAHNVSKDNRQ

[15] = Apparent permeability in pig LLC-PK1 cells; assay type: ADME, cell-based, Sus scrofa
[16] = target: T1, Phosphatidylinositol 4,5-bisphosphate 3-kinase catalytic subunit delta isoform; experiment: Inhibition of PI3Kdelta in human whole blood assessed as reduction in anti-CD79b antibody-induced CD69 expression preincubated for 60 mins followed by anti-CD79b antibody stimulation and measured after 3 hrs by FACS analysis; assay type: tissue-based

Sequence of PI3-kinase p110-delta/p85-alpha (P27986 whole entry, one chain of several): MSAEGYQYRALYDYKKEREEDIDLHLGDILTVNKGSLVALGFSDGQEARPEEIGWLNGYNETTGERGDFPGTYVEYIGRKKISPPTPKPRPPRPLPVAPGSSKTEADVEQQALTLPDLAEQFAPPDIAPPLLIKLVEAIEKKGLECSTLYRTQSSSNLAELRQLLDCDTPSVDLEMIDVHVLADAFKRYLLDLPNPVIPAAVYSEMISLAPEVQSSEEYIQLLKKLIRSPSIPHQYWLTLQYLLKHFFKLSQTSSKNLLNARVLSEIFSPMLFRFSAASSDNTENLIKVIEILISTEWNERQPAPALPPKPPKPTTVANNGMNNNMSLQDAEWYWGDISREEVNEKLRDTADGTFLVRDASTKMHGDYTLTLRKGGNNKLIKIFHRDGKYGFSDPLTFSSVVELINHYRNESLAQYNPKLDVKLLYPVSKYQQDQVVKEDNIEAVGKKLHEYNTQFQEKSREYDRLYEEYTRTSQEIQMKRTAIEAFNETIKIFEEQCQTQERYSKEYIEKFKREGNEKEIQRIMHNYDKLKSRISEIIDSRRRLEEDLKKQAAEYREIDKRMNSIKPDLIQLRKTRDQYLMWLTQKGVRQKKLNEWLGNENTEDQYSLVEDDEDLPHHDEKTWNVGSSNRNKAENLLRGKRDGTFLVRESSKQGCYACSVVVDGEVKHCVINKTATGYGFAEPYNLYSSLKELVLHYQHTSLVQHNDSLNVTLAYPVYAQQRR

SMILES	pIC50 [1]	pIC50 [2]	logD [3]	Vd [4] [L/kg]	Vdu [5] [L/kg]	half-life [6] [h]	clearance [7] [mL/min/kg]	CL [8] [mL/min/kg]	Vd [9] [L/kg]	Vdu [10] [L/kg]	half-life [11] [h]	clearance [12] [mL/min/kg]	CL [13] [mL/min/kg]	pIC50 [14]	Papp [15] [×10⁻⁶ cm/s]	pIC50 [16]
CCn1c(-c2ccc(C(F)(F)F)nc2)nc2c(O[C@H]3CCN(C(=O)C4CC4)C3)ncnc21	8.29	5.25	2.3	0.7	8.3	0.7						15	240	7.31		
CCC(=O)N1CC[C@H](Oc2ncnc3c2nc(-c2cnc(C)nc2)n3CC)C1		< 5.00	0.8	1.2	2.4	1.2	6.1	11	1.9	2.7	3.9	12	31		21	
CCn1c(-c2cnc(C)nc2)nc2c(O[C@H]3CCN(C(=O)C4CC(F)(F)C4)C3)ncnc21	8.42	5.00	1.5	0.5	3	1.4	23	170	1.4	2.5	0.8	6	28	7.49		7.08

Results, then the compound that gave them:

pIC50 [1]	pIC50 [2]	logD [3]	Vd [4] [L/kg]	Vdu [5] [L/kg]	half-life [6] [h]	clearance [7] [mL/min/kg]	CL [8] [mL/min/kg]	Vd [9] [L/kg]	Vdu [10] [L/kg]	half-life [11] [h]	clearance [12] [mL/min/kg]	CL [13] [mL/min/kg]	pIC50 [14]	Papp [15] [×10⁻⁶ cm/s]	pIC50 [16]	SMILES
8.22	< 5.00	0.7	0.5	0.9	1.4	3	4.2	0.7	0.9	3.8	6.2	12				CCn1c(-c2cnc(C)nc2)nc2c(O[C@H]3CCN(C(=O)C4CCOC4)C3)ncnc21 (some centres undefined)
8.92	5.11	1.3	0.6	4	0.3	12	27	1	1.4	1.1	28	270	7.85			CCn1c(-c2cnc(C)nc2)nc2c(O[C@H]3CCN(C(=O)C4CCC4)C3)ncnc21
